Experimental data: patent publication US7792665B2, “Method for designing a compound based on the three dimensional structure of phosphoinositide dependent protein kinase 1 (PDK1)” (Medical Research Council, priority 2002, dated 2010)
Where a SMILES comes first, the peptide text is derived from it. [ ]: non-standard residue; d: D form. pT = C[C@@H](OP(=O)(O)O)[C@H](N)C(=O)O

Experiments:
PDK1[T148A] [1] = target: T1, PDK1[T148A] (Homo sapiens, UniProt O15530, T148A); test: Surface plasmon resonance (BiaCore) binding, PDK1[T148A]; parameters: made in house; host or cells: human embryonic kidney 293 cells (pEBG2T vector)
T1 sequence (O15530 1-556 T148A): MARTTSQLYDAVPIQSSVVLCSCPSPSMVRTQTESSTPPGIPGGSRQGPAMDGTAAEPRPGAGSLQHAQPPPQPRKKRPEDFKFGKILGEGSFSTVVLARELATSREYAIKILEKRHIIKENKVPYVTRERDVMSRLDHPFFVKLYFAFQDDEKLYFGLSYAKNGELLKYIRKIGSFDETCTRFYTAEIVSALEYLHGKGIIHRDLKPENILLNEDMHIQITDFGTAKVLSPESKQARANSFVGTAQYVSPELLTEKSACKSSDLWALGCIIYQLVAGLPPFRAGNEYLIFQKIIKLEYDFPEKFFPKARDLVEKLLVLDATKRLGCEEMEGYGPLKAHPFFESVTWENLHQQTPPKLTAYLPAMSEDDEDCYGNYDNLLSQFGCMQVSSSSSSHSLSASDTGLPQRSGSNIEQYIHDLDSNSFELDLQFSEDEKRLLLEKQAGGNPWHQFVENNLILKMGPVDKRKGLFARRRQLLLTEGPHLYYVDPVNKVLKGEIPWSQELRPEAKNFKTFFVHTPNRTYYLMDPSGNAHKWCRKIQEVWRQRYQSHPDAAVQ
Procedure: Binding and activation of wild type and mutant forms of PDK1 to a phosphopeptide derived from the hydrophobic motif of S6K1. The binding of the wild type (wt) PDK1 and indicated mutants to a phosphopeptide comprising the hydrophobic motif of S6K1 (S6K-pHM: […]*YVAPSV, where T* indicates phospho-threonine, SEQ ID NO:104) was analysed by surface plasmon resonance as described in the Materials and Methods.
A. The sensor chip SA was coated with 12RUs of the biotinylated S6K-pHM peptide and the binding was analysed following injection of 270 nM wild type PDK1, PDK1 [T148A] and PDK1 [K76A]. […] (data not shown).
B. As in A. except that binding was analysed over a range of PDK1 concentrations (2-2150 nM). The response level at the steady state binding is plotted versus the log of the PDK1 concentration. The estimated Kd was obtained by fitting the data to a sigmoid curve using Kaleidagraph software.
Binding was analysed in a BiaCore 3000 system (BiaCore AB, Stevenage, UK). Biotinylated S6K-pHM (Biotin-C12-[…](P)YVAPSV) (SEQ ID NO:104) or the non-phosphorylated form of this peptide S6K-HM was bound to an streptavidin-coated Sensor chip (SA) (12 response units, RU). […] Steady state binding was determined at each concentration. Dissociation of PDK1 from the phospho-peptide was monitored over a 1 min period. […]

PDK1[T148A] [2] = target: T1, PDK1[T148A]; test: PDK1 catalytic activity towards T308tide, activation by peptides, PDK1[T148A]; assay type: biochemical; parameters: made in house; settings: T308tide substrate
Procedure: (§1) C. Activation of the indicated forms of PDK1 by 56K-pHM and S6K-HM. PDK1 activity was measured using the peptide substrate (T308tide) in the presence of the indicated concentrations of 56K-pHM (closed circles) and S6K-HM (open circles) as described in the methods. Assays were performed in triplicate and similar results obtained in 2 separate experiments. The results are the average—SD for a single experiment.
(§2) The ability of wild type and mutant PDK1 to phosphorylate the synthetic peptide T308tide ([…] ([Biondi et al., 2000]) (SEQ ID NO:108) was carried out in 30 μl assays containing 100 ng of wild type or mutant PDK1, 50 mM Tris/HCl pH 7.5, 0.1% 13-mercaptoethanol, 10 mM MgCl2, 100 μM [32γ P]ATP (200 cpm/pmol), 0.5 μM microcystin-LR, 1 mM T308tide in the presence or absence of the indicated concentrations of the 56K-pHM peptide ([…](P)YVAPSV) (SEQ ID NO:104) or 56K-HM. peptide ([…]) (SEQ ID NO:105). After incubation for 10 min at 30° C., 25 μl of the resultant mixture was spotted into P81 phosphocellulose paper (2×2 cm) and the papers washed and analysed as described previously for assays of MAP kinase. Control assays were carried out in parallel in which either PDK1, or peptide substrate were omitted; these values were always less than 5% of the activity measured in the presence of these reagents. […]

[3] = target: T2, mutant of PDK1 in which both Lys76 and Arg131 were changed to Ala (Homo sapiens, UniProt O15530, K76A/R131A); test: PDK1 catalytic activity towards T308tide, activation by peptides, Lys76 and Arg131 to Ala double mutant; assay type: biochemical; settings: peptide 0.3 and 1 mM, compared with PDK1[R131A]
T2 construct: GST (N); made in house; host or cells: human embryonic kidney 293 cells (pEBG2T vector)
T2 sequence (O15530 whole entry K76A/R131A): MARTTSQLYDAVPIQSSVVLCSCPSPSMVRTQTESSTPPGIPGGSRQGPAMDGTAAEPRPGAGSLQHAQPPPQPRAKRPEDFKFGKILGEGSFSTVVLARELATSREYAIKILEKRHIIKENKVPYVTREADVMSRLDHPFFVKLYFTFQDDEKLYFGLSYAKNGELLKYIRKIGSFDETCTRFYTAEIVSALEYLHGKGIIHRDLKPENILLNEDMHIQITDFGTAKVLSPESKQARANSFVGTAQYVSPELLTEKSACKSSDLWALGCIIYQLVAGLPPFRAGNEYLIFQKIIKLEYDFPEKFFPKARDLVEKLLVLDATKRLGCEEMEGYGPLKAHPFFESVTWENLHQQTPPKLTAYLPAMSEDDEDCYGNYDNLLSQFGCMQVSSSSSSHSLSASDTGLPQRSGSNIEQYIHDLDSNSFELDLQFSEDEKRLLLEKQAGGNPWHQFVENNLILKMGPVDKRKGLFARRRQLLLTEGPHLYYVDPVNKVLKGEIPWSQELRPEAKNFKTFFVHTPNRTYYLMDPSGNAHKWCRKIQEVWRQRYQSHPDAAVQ
Procedure: as §1, §2

## CC(C)C[C@H](NC(=O)[C@H](Cc1ccccc1)NC(=O)[C@@H](NC(=O)[C@H](CCC(N)=O)NC(=O)[C@H](CC(N)=O)NC(=O)[C@H](C)NC(=O)[C@H](CO)NC(=O)[C@H](CCC(=O)O)NC(=O)[C@@H](N)CO)C(C)C)C(=O)NCC(=O)N[C@@H](Cc1ccccc1)C(=O)N[C@H](C(=O)N[C@@H](Cc1ccc(O)cc1)C(=O)N[C@H](C(=O)N[C@@H](C)C(=O)N1CCC[C@H]1C(=O)N[C@@H](CO)C(=O)N[C@H](C(=O)O)C(C)C)C(C)C)[C@@H](C)OP(=O)(O)O [S6K-pHM] (H-SESANQVFLGF[pT]YVAPSV-OH; N-terminus and C-terminus assumed)
PDK1[T148A] [1]; BiaCore, 270 nM PDK1
  dissociation of PDK1[T148A] from peptide compared with wild type PDK1 or PDK1[K76A]: markedly slower
PDK1[T148A] [1]; relative to wild type PDK1
  higher affinity of PDK1[T148A] than wild type PDK1: about 10 fold
PDK1[T148A] [2]
  activation of PDK1[T148A]: activated similarly as wild type PDK1
[3]
  activation of Lys76/Arg131 to Ala double mutant: activated even less significantly
